For data set [1], the system named is an ETEC and an EPEC strain. The conditions noted are these: cited from earlier work.
The next data set has as its system H. felis CCUG 28539. As to the kind of experiment: Binding of 35S-labeled Helicobacter species to glycosphingolipids on thin-layer chromatograms. Details: species or system Helicobacter felis; key: + denotes a significant darkening on the autoradiogram when 2 μg (or 40 μg in the case of the last sample) was applied to TLC plates; − denotes no binding. The conditions noted are these: 2 μg (40 μg for the glycosphingolipid fraction) on TLC plates. From the text:
(§1) Gastric species examined in the present study included, Helicobacter mustelae ferret isolates from the National Collection of Type Cultures (NCTC) and the Culture Collection of the University of Gothenberg (CCUG), NCTC 12198/CCUG 25175 (equivalent strains from different sources tested), CCUG 23950 and CCUG 23951, Helicobacterfelis CCUG 28539 from a cat, in addition, H. pylori strains CCUG 17874, CCUG 17875 and a clinical isolate 119/95 were used. Enterohepatic helicobacters of animal origin were purchased from the CCUG including, Helicobacter canes CCUG 33835, Helicobacter bilis CCUG 38995, Helicobacter hepaticus CCUG 33637, and Helicobacterfennelliae (CCUG 18820).
(§2) Binding of Helicobacter spp. to glycosphingolipids, both acid and non-acidfractions. Glycosphingolipids were isolated by standard procedures (Karlsson, 1987). The identity of the purified glycosphingolipids was confirmed by mass spectrometry (Samuelsson et al., 1990), proton NMR spectroscopy (Koerner et al., 1983) and degradation studies (Stellner et al., 1973; Yang and Hakomori, 1971).
(§3) Mixtures of glycosphingolipids (40 μg/lane) or pure compounds (2 μg/lane) were subsequently separated using thin-layer chromatography (TLC) on glass- or aluminum-backed silica gel 60 HPTLC plates (Merck, Darmstadt, Germany), with chloroform/methanot/water (60:35:8, by volume) as solvent system. Chemical detection was accomplished by anisaldehyde (Waldi, 1962). Helicobacter spp. were subjected to ^35S-labeling (Angstrom et al., 1998) and suspended in PBS (10^8 CFU/ml) with a specific activity of approximately 1 cpm per 100 organisms. Binding of the labeled-bacteria to glycosphingolipids separated by TLC was achieved using a bacterial-overlay technique coupled with autoradiography detection using XAR-5 X-ray films (Eastman Kodak, Rochester, N.Y.) as previously described (Hansson et al., 1985).

The next data set concerns E. coli EIEC CCUG 38092. As to the kind of experiment: Chromatogram binding assay, binding specificities of type strains. Details: species or system Escherichia coli. The conditions noted are these: prolonged sub-culture, 4 μg per lane. As to the method:
Culture Conditions and Labeling—The E. coli strains were cultured on Luria-agar with the addition of 10 μl ^35S-methionine (400 tici; Amersham Pharmacia Biotech, U.K.) at 37° C. for 12 h. The bacteria were harvested by scraping, washed three times with phosphate-buffered saline (PBS), pH 7.3, and thereafter resuspended in PBS (with or without 1% mannose (w/v)) to 1×10^8 CFU/ml. The specific activities of the suspensions were approximately 1 cpm per 100 bacteria.
Thin-Layer Chromatography—Thin-layer chromatography of glycosphingolipids was performed on glass- or aluminum-backed silica gel 60 HPTLC plates (Merck, Darmstadt, Germany), using chloroform/methanol/water 60:35:8 (by volume) as solvent system. Chemical detection was done with anisaldehyde (6).
(§4) Glycosphingolipid Binding Assays—Binding of ^35S-labeled bacteria to glycosphingolipids on thin-layer chromatograms was done as reported (7). Dried chromatograms were dipped for 1 min in diethylether/n-hexane (1:5, by volume) containing 0.5% (w/v) polyisobutylmethacrylate (Aldrich Chem. Comp. Inc., Milwaukee, Wis.). After drying, the chromatograms were soaked in PBS containing 2% bovine serum albumin (w/v), 0.1% NaN3 (w/v) and 0.1% Tween 20 (by volume) for 2 h at room temperature. The chromatograms were subsequentely covered with radiolabeled bacteria diluted in PBS (2-5×10^6 cpm/ml). Incubation was done for 2 h at room temperature, followed by repeated washings with PBS. The chromatograms were thereafter autoradiographed using XAR-5 X-ray films (Eastman Kodak, Rochester, N.Y.) for 12 h. Autoradiograms were replicated using a CCD camera (Dage-MTI, Inc., Michigan City, Ind.), and analysis of the images was performed using the public domain NIH Image program (developed at the U.S. National Institutes of Health, and available at http://rsb.info.nih.eov/nih-imaee/).
However, several wild type diarrheagenic E. coli strains bind to sialic acid (see e.g. FIG. 6 and FIG. 3). […]

The next data set relates to H. canis CCUG 33835. As to the kind of experiment: Binding of 35S-labeled Helicobacter species to glycosphingolipids on thin-layer chromatograms. The conditions noted are these: 2 μg (40 μg for the glycosphingolipid fraction) on TLC plates. Details: species or system Helicobacter canis; key: + denotes a significant darkening on the autoradiogram when 2 μg (or 40 μg in the case of the last sample) was applied to TLC plates; − denotes no binding.
Source text: as §1, §2, §3

Data set [2] concerns H. mustelae CCUG 23950 & 23951. The description is as above. Details: species or system Helicobacter mustelae; key: + denotes a significant darkening on the autoradiogram when 2 μg (or 40 μg in the case of the last sample) was applied to TLC plates; − denotes no binding. The conditions noted are these: 2 μg (40 μg for the glycosphingolipid fraction) on TLC plates.
Source text: as §1, §2, §3

In the next data set the test system is H. mustelae 25715. The data set is described as above. The arrangement: species or system Helicobacter mustelae; key: + denotes a significant darkening on the autoradiogram when 2 μg (or 40 μg in the case of the last sample) was applied to TLC plates; − denotes no binding. The conditions noted are these: 2 μg (40 μg for the glycosphingolipid fraction) on TLC plates.
Source text: as §1, §2, §3

The subject of the next data set is H. pylori CCUG 17874. Described as above. Details: species or system Helicobacter pylori; key: + denotes a significant darkening on the autoradiogram when 2 μg (or 40 μg in the case of the last sample) was applied to TLC plates; − denotes no binding. The conditions noted are these: 2 μg (40 μg for the glycosphingolipid fraction) on TLC plates.
Source text: as §1, §2, §3

A further data set has as its system H. pylori CCUG 17875. The description is as above. Details: species or system Helicobacter pylori; key: + denotes a significant darkening on the autoradiogram when 2 μg (or 40 μg in the case of the last sample) was applied to TLC plates; − denotes no binding. The conditions noted are these: 2 μg (40 μg for the glycosphingolipid fraction) on TLC plates.
Source text: as §1, §2, §3

The test system of the next data set is H. hepaticus CCUG 33637. The description is as above. Details: species or system Helicobacter hepaticus; key: + denotes a significant darkening on the autoradiogram when 2 μg (or 40 μg in the case of the last sample) was applied to TLC plates; − denotes no binding. The conditions noted are these: 2 μg (40 μg for the glycosphingolipid fraction) on TLC plates.
Source text: as §1, §2, §3

Data set [3] relates to gastric and enterohepatic Helicobacter spp. The data set is described as follows: Binding of Helicobacter spp. to glycosphingolipids (statements for several species).
Source text: as §1, §2, §3

The subject of the next data set is H. bilis CCUG 38995. As to the kind of experiment: Binding of 35S-labeled Helicobacter species to glycosphingolipids on thin-layer chromatograms. The arrangement: species or system Helicobacter bilis; key: + denotes a significant darkening on the autoradiogram when 2 μg (or 40 μg in the case of the last sample) was applied to TLC plates; − denotes no binding. The conditions noted are these: 2 μg (40 μg for the glycosphingolipid fraction) on TLC plates.
Source text: as §1, §2, §3

For the next data set, the system named is EPEC strain. The conditions noted are these: listed in decreasing order of activity; cited from earlier work.
Another data set concerns diarrheagenic E. coli. The data set is described as follows: Comparison of binding to dilution series of sialyl-neolactotetraosylceramide variants. Details: species or system Escherichia coli. The conditions noted are these: dilution series of glycolipids. Here is the method: as §4
To dissect the sialic acid binding preferences of diarrheagenic E. coli, the binding of bacteria to variants of sialyl-neoleactotetraosylceramide was compared. […] The comparison was performed by using dilution series of glycolipids and comparing the disappearence of the bindings when the amounts of glycolipids were reduced.

Where [4] appears, read: both gastric and enterohepatic Helicobacter spp. tested.

The values below come from US20060014717A1, “Therapeutic compositions for use in prophylaxis or treatment of diarrheas” (priority 2002, published 2006).

Regarding `CC(=O)N[C@H]1[C@H]([C@H](O)[C@H](O)CO)OC(O)(C(=O)O)C[C@@H]1O` (stereo partly drawn) [N-acetylneuraminic acid], in data set [1], the “Inhibition of binding of an ETEC and an EPEC strain to Caco-2 cells” value (shortened to “Inhibition”) is listed as “negative”.
With Galα3Galβ4Glcβ1Cer [No. 7], the “Binding of glycosphingolipids to H.felis 28539” value (from here on “Binding … to H.felis 28539”) in the data set with H. felis CCUG 28539 is “+”. For the same compound, in the data set with E. coli EIEC CCUG 38092 (listed as isoglobotriaosylceramide), the “Binding of E. coli CCUG 38092 to pure glycosphingolipids after sub-culture” value is listed as “Selective loss of binding”. Besides, in the data set with H. canis CCUG 33835, the “Binding of glycosphingolipids to H.canis 33835” value (from here on “Binding … to H.canis 33835”) is reported as “+”. Also, in data set [2], the “Binding of glycosphingolipids to H.mustelae 23950 & 23951” value (from here on “Binding … to H.mustelae 23950 & 23951”) was “+”. Further, the “Binding of glycosphingolipids to H.mustelae 25715” value (“Binding … to H.mustelae 25715” for short) with H. mustelae 25715 was “+”. In the data set on H. pylori CCUG 17874, the “Binding of glycosphingolipids to H.pylori 17874” value (“Binding … to H.pylori 17874” for short) is listed as “+”. Also, the “Binding of glycosphingolipids to H.pylori 17875” value (shortened to “Binding … to H.pylori 17875”) in the data set with H. pylori CCUG 17875 is listed as “+”. Moreover, in the data set on H. hepaticus CCUG 33637, the “Binding of glycosphingolipids to H.hepaticus 33637” value (“Binding … to H.hepaticus 33637” below) is given as “+”. For the same compound, the “Binding of Helicobacter spp. to glycosphingolipid, in words” value (“Binding … in words” for short) in [3] (setting [4]) is given as “capable of binding”. Also, in the data set with H. bilis CCUG 38995, the “Binding of glycosphingolipids to H.bilis 38995” value (shortened to “Binding … to H.bilis 38995”) is “+”.
As for “Galβ3GalNAcβ4(NeuAcα3)Galβ4Glcβ1Cer [No. 29]”, in data set [1], the “Inhibition” value is listed as “inhibiting”.
Galβ3GalNAcβ4Galβ4Glcβ1Cer [No. 11]: the “Binding … to H.felis 28539” value in the data set on H. felis CCUG 28539 is on record as “+”. In addition, the “Binding of E. coli CCUG 38092 to pure glycosphingolipids after sub-culture” value in the data set on E. coli EIEC CCUG 38092 is given as “remain”. In addition, the “Binding of an EPEC strain to commercial glycolipids” value in the data set with EPEC strain is “observed to bind”. The “Binding … to H.canis 33835” value in the data set on H. canis CCUG 33835 was “+”. The “Binding … to H.mustelae 23950 & 23951” value in data set [2] is “+”. The “Binding … to H.mustelae 25715” value with H. mustelae 25715 is reported as “+”. In the data set with H. pylori CCUG 17874, the “Binding … to H.pylori 17874” value was “+”. In the data set on H. pylori CCUG 17875, the “Binding … to H.pylori 17875” value was “+”. Further, in the data set with H. hepaticus CCUG 33637, the “Binding … to H.hepaticus 33637” value was “+”. Moreover, the “Binding … in words” value in data set [3] (H. felis, H. canis, H. hepaticus and H. bilis) is reported as “binding was demonstrated”. Further, the “Binding … to H.bilis 38995” value with H. bilis CCUG 38995 is on record as “+”.
Turning to Galβ3GlcNAcβ3Galβ4Glcβ1Cer [No. 23], the “Binding … to H.felis 28539” value with H. felis CCUG 28539 is reported as “+”. Moreover, in the data set on H. canis CCUG 33835, the “Binding … to H.canis 33835” value is “+”. The “Binding … to H.mustelae 23950 & 23951” value in data set [2] is listed as “+”. Also, the “Binding … to H.mustelae 25715” value in the data set with H. mustelae 25715 is “+”. For the same compound, in the data set on H. pylori CCUG 17874, the “Binding … to H.pylori 17874” value is “+”. Besides, the “Binding … to H.pylori 17875” value in the data set on H. pylori CCUG 17875 is “+”. The “Binding … to H.hepaticus 33637” value in the data set with H. hepaticus CCUG 33637 is given as “+”. Further, the “Binding … in words” value in data set [3] (setting [4]) was “capable of binding”. For the same compound, the “Binding … to H.bilis 38995” value in the data set on H. bilis CCUG 38995 is “+”.
In the case of Galβ4Glcβ1Cer [No. 5], in the data set with H. felis CCUG 28539, the “Binding … to H.felis 28539” value was “+”. Besides, the “Binding … to H.canis 33835” value in the data set with H. canis CCUG 33835 is recorded as “+”. For the same compound, the “Binding … to H.mustelae 23950 & 23951” value in [2] is given as “+”. In addition, in the data set on H. mustelae 25715, the “Binding … to H.mustelae 25715” value is listed as “+”. In the data set on H. pylori CCUG 17874, the “Binding … to H.pylori 17874” value is listed as “+”. Further, in the data set with H. pylori CCUG 17875, the “Binding … to H.pylori 17875” value is “+”. For the same compound, the “Binding … to H.hepaticus 33637” value with H. hepaticus CCUG 33637 is on record as “+”. The “Binding … in words” value in data set [3] (setting [4]) is recorded as “capable of binding”. Moreover, the “Binding … to H.bilis 38995” value in the data set on H. bilis CCUG 38995 is on record as “+”.
On to “NeuAcα3Galβ4GlcNAcβ3Galβ4Glcβ1Cer [No. 31]”, for which the “Relative binding affinity, order by disappearance of binding in dilution series” value in the data set with diarrheagenic E. coli is “finally”.
“NeuGcα3Galβ4GlcNAcβ3Galβ4Glcβ1Cer [No. 33]”: in the data set with diarrheagenic E. coli, the “Relative binding affinity, order by disappearance of binding in dilution series” value is “highest affinity”.
Consider lactosylceramide, for which, in data set [1], the “Inhibition” value is reported as “negative”. Also, in the data set with EPEC strain, the “Binding of an EPEC strain to commercial glycolipids” value is reported as “negative”.
